One may read the melting point as the temperature, or range, at which the solid turns liquid.

In the case of `CCCCCCCCCCCC(=O)NCCOCCn1c(CCOC)nc2c(N)nc3ccccc3c21`, the melting point fell in the range of 80 to 83 °C.

With `NS(=O)(=O)Oc1ccc(Cl)c(Cl)c1`, the melting point was in the range of 121 to 123 °C.

The molecule `CCc1ccc(NC(=O)NCc2ccc3c(c2)CN(C2CCC(=O)NC2=O)C3=O)cc1` (centres undefined) registered a melting point of 263 to 265 °C.

`C=CCNC(=O)N(N(CCCl)S(C)(=O)=O)S(C)(=O)=O` registered a melting point of 105 to 106 °C.

In the case of `CC(C)S(=O)(=O)n1c(N)nc2ccc(C(=CC(N)=O)c3ccccc3)cc21`, the melting point fell in the range of 211 to 212 °C.

As to `CN(C)CCCN=C1CC(c2ccc(Cl)cc2Cl)Cc2c1c(=O)c1cc(Cl)ccc1n2O` (centres undefined), the melting point lay in the range of 172 to 174 °C.

`CCCCc1nc(CO)c(SCC)n1Cc1ccc(-c2ccccc2C(=O)OC)cc1` returned a melting point of 110 °C.

`CC(C)(C)c1cccc(S(=O)(=O)n2c(Cc3ccc(C(=O)O)cc3)c(F)c3cc(C(F)(F)F)ccc32)c1` came in with a melting point of 158 °C.

`O=C(C1Nc2cc(F)ccc2-n2cnc(-c3nc(C4CC4)no3)c21)N1CCOCC1` (centres undefined): the melting point was in the range of 240 to 242 °C.

Turning to `Cc1cc(C2=C(C=CC3CC(O)CC(=O)O3)C(C)(C)CC(N3CCCC3)C2)ccc1F` (centres undefined), the melting point lay in the range of 120 to 123 °C.

`Cc1cc(Br)ccc1N1C(=O)c2ccc(Cl)cc2C1=O` gave a melting point of 210 to 212 °C.

As for `CC(=O)N1CCCN(NC(=O)c2ccc(F)cc2)CC1`, the melting point lay in the range of 117 to 119 °C.

The molecule `COC(=O)C(C)(SC)c1ccc(N2C(=O)c3ccccc3C2=O)c(Cl)c1` (centres undefined) came in with a melting point of 141 to 142 °C.

In turn, `CC(=O)c1cccc(-c2ccc(OC[C@H](O)CCc3cccnc3)cc2)c1` had a melting point of 58 to 60 °C.

As to `Cn1cc(O)c(=O)c2ccc(Cl)cc21`, the melting point was 225 to 228 °C.

In turn, `CC1(C)C(Cl)(Cl)C1(Cl)C(=O)O` (centres undefined) showed a melting point of 148 to 150 °C.

`CCOC(=O)C(C#N)=Cc1cc(OC)c(C(=O)OC)c(OC)c1` returned a melting point of 142 to 144 °C.

`O=[N+]([O-])c1ccc(C=C/C=C/c2ccc(Cl)c(Cl)c2)cc1`: the melting point was 125 to 135 °C.

As for `Cc1ccc(C(=O)NNc2ccc(NC(=S)Nc3ccccc3)cc2)cc1`, the melting point lay in the range of 186 to 187 °C.

The molecule `CCN(c1ccc(C)cc1)c1cc(NC)nc(C)n1` had a melting point of 140 to 143 °C.

The molecule `CC12CC(O)C3(F)C(CCC4=CC(=O)C=CC43C)C1CC=C2SCOC(=O)c1ccccc1` (centres undefined) had a melting point of 220 to 222 °C.

Turning to `N#CC(c1ccc(Cl)c(Cl)c1)c1c(Cl)cc(NN)cc1Cl` (centres undefined), the melting point lay in the range of 183 to 185 °C.

The molecule `CC(C)(C)N(NC(=O)c1cncc(Br)c1)C(=O)c1ccc(Cl)cc1` registered a melting point of 193 to 197 °C.

The molecule `CNC(=O)Nc1cc(C(C)(C)COC)on1` had a melting point of 65 to 67 °C.

For the molecule `CCOc1cnc2nc(S(=O)(=O)Cl)nn2c1`, the melting point is 134 to 137 °C.

Consider `CC(C)C[C@H](NC(=O)OCC1c2ccccc2-c2ccccc21)C(=O)OC(C)(C)C`, for which the melting point is 183 to 184 °C.

For `CCN(c1c(-c2ccccc2)[nH]c(C)c1C(=O)c1ccccc1)S(=O)(=O)c1ccc(C)cc1`, the melting point lay within 224 to 225 °C.

Take `CCN(CC)C(=O)Oc1nc(-c2ccc(OC)cc2)cc2ccccc12`: the melting point was determined as 84 °C.

The molecule `CC(=O)OC1C(CO)OC(c2ccc(Cl)c(Cc3ccc(-c4ccccc4)s3)c2)C(OC(C)=O)C1OC(C)=O` (centres undefined) came in with a melting point of 166 to 168 °C.

On to `O=C(c1ccc([N+](=O)[O-])cc1)N1CC2CC2(c2ccc(Cl)cc2)C1` (centres undefined), for which the melting point lay within 177 to 180 °C.

On to `CCC1c2ccccc2-c2cc(-c3cccc(O)c3)ccc2N1S(=O)(=O)c1ccc(O)cc1` (centres undefined), for which the melting point worked out at 105 °C.

In the case of `Cc1ccc(OCCCCCCN2CCN(c3nccs3)CC2)cc1`, the melting point was in the range of 37 to 39 °C.

Turning to `CC(C)c1cccc(S(=O)(=O)n2c(CCCC(=O)O)cc3cc(C(F)(F)F)ccc32)c1`, the melting point turned out to be 160 °C.

Take `O=C(Cn1ncc(-c2ccccc2)c1-c1ccccc1)NCCN1CCCC1`: the melting point was in the range of 80 to 84 °C.

The values above are taken from a melting point compilation (Tetko et al.; mined from patent text by program, amines drawn as free bases though some values may be those of a salt).
